Measurements from publication PMC10590383, “Repurposing conformational changes in ANL superfamily enzymes to rapidly generate biosensors for organic and amino acids” (Nature Communications, 2023).

Assay: pH stability of […]-Phe3 (dose–response and fluorescence intensity at pH 6.5, 7.5, 8.5)
Format: biochemical
Settings: for fluorescence response of GECFINDER, AVE of 3 repeats: Supplementary Fig. 3 e; for fluorescence intensity, AVE of 3 repeats: Supplementary Fig. 3 d, 100 μM Phe
Excerpt: As cpEGFP is sensitive to pH, we conducted a dose-response curve and fluorescence intensity analysis of […]-Phe3 at varying pH levels. […] In addition, we expanded the range of ligand-binding domains (LBDs) applicable to […] and attempted optimization of insertion sites for cpEGFP with limited success. Please refer to Supplemental Note 1 for detailed information.
The study conducted dose–response curve, substrate specificity, and fluorescent spectrum analyses in 100-mM Tris buffer (pH = 7.5), while pH stability experiments were performed in 100-mM Tris buffer at three different pH values (6.5, 7.5, and 8.5) at room temperature. […] protein at a concentration of 0.75 μM, various small molecule concentrations, 1 mM ATP, and 2.5 mM MgCl2 were used in the experiments. Fluorescent signals were detected using a Microplate Reader (Synergy H4, Bio Tek) at an excitation/emission wavelength of 460 nm/510 nm or 480 nm/510 nm. The dose-response curve was determined immediately after the addition of the analyte. The total duration of the measurement was 15 min, with readings taken at one-minute intervals. The dose-response curve was plotted using the fluorescence values obtained after achieving stability in the fluorescence signal. The dose-response curves were fitted using the logistic model LOGISTIC5 available in Origin 2021, which could provide a more adequate fit to asymmetric dose-response data[62],[63]. Excitation spectra were scanned from 300 to 540 nm with a step size of 5 nm, and the emission wavelength was set to 560 nm. Emission spectra were scanned from 470 to 700 nm with a step size of 5 nm, and the excitation wavelength was set to 450 nm. The thermal stability of […] was analyzed using the UNcle multifunctional protein stability analysis system. Measurements were performed in 20 mM MOPS buffer with 2 mM DTT at a sample concentration of 1 mg/mL. Absolute fluorescence quantum yields were measured using an absolute photoluminescence quantum yield spectrometer (FS5, Edinburgh). […]
β-P he. […]
All data shown are mean s ± S.D . (n =3 biologically inde pendent samples). Source
data are provided as a Source Data file.
(also on this page, place not known: 10210-210-3 Normalized Normalized […]-Leu3 10-4 10⁵ 2.5 Normalized ΔF/F 0 AlaAr As p As […]Pr SerThr ValTrpTyr Ph R-β-Ph β-Ph e 2.5Normalized ΔF/F 0 Substrate 100μM 100μM 100μM Fluorescence ...K ...N GrsA-PheA PpsA-GluA -QSVF- 10⁰ 10⁵ […]-Ile(VF-QS) Normalized ΔF/F 0 (μM) 0mM 0.75mM His 12×10³Intensity f g Substrate specificity engineering insertion optimization […]. Dose–response purified […]-Leu2 increasing concentrations normalized ΔF/F0 […]-SβF acids R/S- β-Phe. concentrations substrates Fluorescence purified […]-Phe3 different control fluorescence substrate added. response purified […]-Phe3 increasing concentrations different junction domain Dose–response curve purified […]-Ile (VF-QS) increasing concentrations Normalized ΔF/F0 increased after excitation).h, Difference fluorescence intensity […]-His (VF-QS) presence histidine compared control means S.D. (n=3 independent) […]

Structure (SMILES): N[C@@H](Cc1ccccc1)C(=O)O [Phe]
- fluorescence response of GECFINDER, AVE of 3 repeats (pH6.5, Phe 0.001 μM): -5.5222e-17
- fluorescence response of GECFINDER, AVE of 3 repeats (pH6.5, Phe 0.005 μM): 0.01941
- fluorescence response of GECFINDER, AVE of 3 repeats (pH6.5, Phe 0.01 μM): 0.04517
- fluorescence response of GECFINDER, AVE of 3 repeats (pH6.5, Phe 0.05 μM): 0.1259
- fluorescence response of GECFINDER, AVE of 3 repeats (pH6.5, Phe 0.1 μM): 0.2201
- fluorescence response of GECFINDER, AVE of 3 repeats (pH6.5, Phe 0.5 μM): 0.7727
- fluorescence response of GECFINDER, AVE of 3 repeats (pH6.5, Phe 1 μM): 1.198
- fluorescence response of GECFINDER, AVE of 3 repeats (pH6.5, Phe 5 μM): 2.235
- fluorescence response of GECFINDER, AVE of 3 repeats (pH6.5, Phe 10 μM): 2.5727
- fluorescence response of GECFINDER, AVE of 3 repeats (pH6.5, Phe 25 μM): 2.94
- fluorescence response of GECFINDER, AVE of 3 repeats (pH6.5, Phe 50 μM): 3.093
- fluorescence response of GECFINDER, AVE of 3 repeats (pH6.5, Phe 100 μM): 3.166
- fluorescence response of GECFINDER, AVE of 3 repeats (pH7.5, Phe 0.001 μM): 0
- fluorescence response of GECFINDER, AVE of 3 repeats (pH7.5, Phe 0.005 μM): 0.04668
- fluorescence response of GECFINDER, AVE of 3 repeats (pH7.5, Phe 0.01 μM): 0.05356
- fluorescence response of GECFINDER, AVE of 3 repeats (pH7.5, Phe 0.05 μM): 0.1413
- fluorescence response of GECFINDER, AVE of 3 repeats (pH7.5, Phe 0.1 μM): 0.2634
- fluorescence response of GECFINDER, AVE of 3 repeats (pH7.5, Phe 0.5 μM): 0.9215
- fluorescence response of GECFINDER, AVE of 3 repeats (pH7.5, Phe 1 μM): 1.384
- fluorescence response of GECFINDER, AVE of 3 repeats (pH7.5, Phe 5 μM): 2.412
- fluorescence response of GECFINDER, AVE of 3 repeats (pH7.5, Phe 10 μM): 2.788
- fluorescence response of GECFINDER, AVE of 3 repeats (pH7.5, Phe 25 μM): 3.108
- fluorescence response of GECFINDER, AVE of 3 repeats (pH7.5, Phe 50 μM): 3.25
- fluorescence response of GECFINDER, AVE of 3 repeats (pH7.5, Phe 100 μM): 3.385
- fluorescence response of GECFINDER, AVE of 3 repeats (pH8.5, Phe 0.001 μM): 5.725e-17
- fluorescence response of GECFINDER, AVE of 3 repeats (pH8.5, Phe 0.005 μM): 0.003084
- fluorescence response of GECFINDER, AVE of 3 repeats (pH8.5, Phe 0.01 μM): 0.009629
- fluorescence response of GECFINDER, AVE of 3 repeats (pH8.5, Phe 0.05 μM): 0.04022
- fluorescence response of GECFINDER, AVE of 3 repeats (pH8.5, Phe 0.1 μM): 0.0788
- fluorescence response of GECFINDER, AVE of 3 repeats (pH8.5, Phe 0.5 μM): 0.5458
- fluorescence response of GECFINDER, AVE of 3 repeats (pH8.5, Phe 1 μM): 0.9288
- fluorescence response of GECFINDER, AVE of 3 repeats (pH8.5, Phe 5 μM): 1.837
- fluorescence response of GECFINDER, AVE of 3 repeats (pH8.5, Phe 10 μM): 2.121
- fluorescence response of GECFINDER, AVE of 3 repeats (pH8.5, Phe 25 μM): 2.449
- fluorescence response of GECFINDER, AVE of 3 repeats (pH8.5, Phe 50 μM): 2.595
- fluorescence response of GECFINDER, AVE of 3 repeats (pH8.5, Phe 100 μM): 2.661
- fluorescence intensity, AVE of 3 repeats (pH6.5): 11375
- fluorescence intensity, AVE of 3 repeats (pH7.5): 18474.7
- fluorescence intensity, AVE of 3 repeats (pH8.5): 19389
